Literature values as cited in patent publication US20140371322A1, “Phenoxybenzamine Transdermal Composition” (PROFESSIONAL COMPOUNDING CENTERS OF AMERICA, priority 2013, published 2014).

Assays:
[1] = weak base

Question: Which results are given for `CC(COc1ccccc1)N(CCCl)Cc1ccccc1` (centres unmarked) [phenoxybenzamine]?
Answer: pka (dissociation constant) [1]: 6.58; octanol/water log P partition coefficient: 4.6
